Laboratory results taken from patent US11566007B2, “Ras inhibitors” (Revolution Medicines, Inc., priority 2019, dated 2023).
Where two headings read alike, the source gives them in different places.

How the values were obtained:
KRAS G13D = KRAS G13D (Homo sapiens (Human), UniProt P01116+P62937, G13D); assay: Ras-Raf (BRAF RBD) disruption / FRET / MOA assay, KRAS G13D; assay type: biochemical; settings: read-out: IC50* KRAS G13D FRET data
In short: (§1)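 TR-FRET read-out: a drop in ratio relative to DMSO wells marks disruption of the Ras:RAF complex, reported as IC50. Compounds (3-fold series, 10 points, top 30 μM final) incubated 3 h at 25° C before Eu-anti-His 10 nM and APC-anti-GST 50 nM, 1.5 h more.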

KRAS G12D = KRAS G12D (Homo sapiens (Human), UniProt P01116+P62937, G12D); assay: Ras-Raf (BRAF RBD) disruption / FRET / MOA assay, KRAS G12D; assay type: biochemical; settings: Ras-Raf disruption/FRET/MOA assay; class symbols; read-out: KRAS G12D FRET data IC50
In short: as §1

KRAS G12S = KRAS G12S (Homo sapiens (Human), UniProt P01116+P62937, G12S); assay: Ras-Raf (BRAF RBD) disruption / FRET / MOA assay, KRAS G12S; assay type: biochemical; settings: Ras-Raf disruption/FRET/MOA assay; class symbols; read-out: KRAS G12S FRET data IC50
In short: as §1

KRAS G12V = KRAS G12V (Homo sapiens (Human), UniProt P01116+P62937, G12V); assay: Ras-Raf (BRAF RBD) disruption / FRET / MOA assay, KRAS G12V; assay type: biochemical; settings: read-out: IC50* KRAS G12V FRET data
In short: as §1

NRAS Q61K = NRAS Q61K (Homo sapiens (Human), UniProt P01111+P62937, Q61K); assay: Ras-Raf (BRAF RBD) disruption / FRET / MOA assay, NRAS Q61K; assay type: biochemical; settings: NRAS Q61K; Ras-Raf disruption/FRET/MOA assay; read-out: IC50* NRAS Q61K FRET data
In short: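 Compounds were tested as a 10-point 3-fold dilution series from 30 μM final for their ability to drive ternary complex formation between nucleotide-loaded Ras and cyclophilin A, displacing the BRAF RBD. After 3 h at 25° C., anti-His Eu-W1024 (10 nM) and anti-GST allophycocyanin (50 nM) were added for 1.5 h. A TR-FRET ratio decrease versus DMSO gave IC50.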

NRAS G12C = NRAS G12C (Homo sapiens (Human), UniProt P01111+P62937, G12C); assay: Ras-Raf (BRAF RBD) disruption / FRET / MOA assay, NRAS G12C; assay type: biochemical; settings: read-out: IC50* NRAS G12C FRET data
In short: as §1

KRAS WT = KRAS WT (Homo sapiens (Human), UniProt P01116+P62937); assay: Ras-Raf (BRAF RBD) disruption / FRET / MOA assay, KRAS WT; assay type: biochemical; settings: read-out: IC50* KRAS WT FRET data
In short: as §1

NCI-H358 (K-Ras G12C) = assay: CellTiter-Glo cell viability assay, NCI-H358; assay type: cell-based, human; settings: Homo sapiens, NCI-H358, 120 h, class symbols
In short: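 Compounds were dispensed directly onto K-Ras mutant cells and incubated until day 5, then plates were equilibrated to room temperature for about 30 minutes before CellTiter-Glo luminescence. Signals were normalized as (sample/average DMSO)*100 and fitted by four-parameter logistic fit.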

[1] = NCI-H358, 5-day treatment, read-out: Additional H358 Cell Viability assay data (K-Ras G12C, IC50)

KRAS G12D, sequence (P01116-2 other isoform, or with tags, fused parts or gaps G12D): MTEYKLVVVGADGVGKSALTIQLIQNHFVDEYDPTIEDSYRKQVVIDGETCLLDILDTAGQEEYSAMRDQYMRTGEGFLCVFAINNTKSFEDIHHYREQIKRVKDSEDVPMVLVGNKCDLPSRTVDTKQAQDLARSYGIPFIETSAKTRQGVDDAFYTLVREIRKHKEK
KRAS G12D, sequence (P62937 whole entry): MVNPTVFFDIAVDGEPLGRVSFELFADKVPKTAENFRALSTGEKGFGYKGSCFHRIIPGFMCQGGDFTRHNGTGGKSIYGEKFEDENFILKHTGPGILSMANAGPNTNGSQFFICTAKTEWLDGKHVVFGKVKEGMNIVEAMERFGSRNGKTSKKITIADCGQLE
NRAS Q61K, sequence (P01111 whole entry Q61K): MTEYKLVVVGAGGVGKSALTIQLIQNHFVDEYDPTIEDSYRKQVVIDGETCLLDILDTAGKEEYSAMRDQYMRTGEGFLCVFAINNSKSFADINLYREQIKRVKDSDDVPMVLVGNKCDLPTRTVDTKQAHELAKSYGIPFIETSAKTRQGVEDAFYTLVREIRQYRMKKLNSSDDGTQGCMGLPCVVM
NRAS Q61K, sequence (P62937 whole entry): as the sequence (P62937 whole entry) above
KRAS G12V, sequence (P01116-2 other isoform, or with tags, fused parts or gaps G12V): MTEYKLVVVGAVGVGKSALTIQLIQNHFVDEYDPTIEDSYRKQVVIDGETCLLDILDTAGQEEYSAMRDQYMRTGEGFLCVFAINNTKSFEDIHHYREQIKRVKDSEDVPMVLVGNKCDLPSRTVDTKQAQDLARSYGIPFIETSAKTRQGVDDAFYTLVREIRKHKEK
KRAS G12V, sequence (P62937 whole entry): as the sequence (P62937 whole entry) above
KRAS G13D, sequence (P01116-2 other isoform, or with tags, fused parts or gaps G13D): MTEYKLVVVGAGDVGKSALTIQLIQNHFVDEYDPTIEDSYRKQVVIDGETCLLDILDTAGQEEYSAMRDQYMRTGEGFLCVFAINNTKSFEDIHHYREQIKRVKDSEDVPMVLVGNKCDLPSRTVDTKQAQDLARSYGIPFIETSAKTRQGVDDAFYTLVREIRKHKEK
KRAS G13D, sequence (P62937 whole entry): as the sequence (P62937 whole entry) above
KRAS G12S, sequence (P01116-2 other isoform, or with tags, fused parts or gaps G12S): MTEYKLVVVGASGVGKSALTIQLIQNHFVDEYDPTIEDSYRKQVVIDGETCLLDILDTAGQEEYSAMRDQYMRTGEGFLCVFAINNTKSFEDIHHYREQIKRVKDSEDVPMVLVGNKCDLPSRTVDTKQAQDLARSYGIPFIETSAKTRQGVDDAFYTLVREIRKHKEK
KRAS G12S, sequence (P62937 whole entry): as the sequence (P62937 whole entry) above
KRAS WT, sequence (P01116-2 other isoform, or with tags, fused parts or gaps): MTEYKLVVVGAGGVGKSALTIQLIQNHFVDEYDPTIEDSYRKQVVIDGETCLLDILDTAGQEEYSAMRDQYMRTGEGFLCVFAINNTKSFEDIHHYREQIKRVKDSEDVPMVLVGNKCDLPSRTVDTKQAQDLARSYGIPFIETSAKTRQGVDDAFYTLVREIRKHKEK
KRAS WT, sequence (P62937 whole entry): as the sequence (P62937 whole entry) above
NRAS G12C, sequence (P01111 whole entry G12C): as the sequence (P01111 whole entry Q61K) above, with G12C, K61Q counted along it
NRAS G12C, sequence (P62937 whole entry): as the sequence (P62937 whole entry) above

Row | Compound | IC50 (KRAS G13D) [µM] | IC50 (KRAS G12D) [µM] | IC50 (KRAS G12S) [nM] | IC50 (KRAS G12V) [nM] | IC50 (NRAS Q61K) [nM] | IC50 (NRAS G12C) [nM] | IC50 (KRAS WT) [nM] | IC50 (NCI-H358 (K-Ras G12C); [1]) [µM] | IC50 (NCI-H358 (K-Ras G12C); read-out: Additional H358 Cell Viability assay data (K-Ras G12C, IC50, uM), NCI-H358, 5-day treatment) [µM]
1 | C=CC(=O)N1CC[C@H](C(=O)N(C)[C@H](C(=O)N[C@H]2Cc3cccc(n3)-c3ccc4c(c3)c(c(-c3cccnc3[C@H](C)OC)n4CC)CC(C)(C)COC(=O)[C@@H]3CCCN(N3)C2=O)C(C)C)C1 (atropisomer, axis not shown) [Example A442] | > 10 | > 10 | 1000 to 10000 | > 10000 | 1000 to 10000 | 100 to 1000 | > 10000 | 0.01 to 0.1 | –
2 | C=CC(=O)N1CC[C@H](C(=O)N(C)[C@H](C(=O)N[C@H]2Cc3cccc(c3)-c3ccc4c(c3)c(c(-c3cccnc3[C@H](C)OC)n4CC3COC3)CC(C)(C)COC(=O)[C@@H]3CCCN(N3)C2=O)C(C)C)C1 (atropisomer, axis not shown) [Example A481] | > 10 | > 10 | 1000 to 10000 | 1000 to 10000 | 1000 to 10000 | 100 to 1000 | 1000 to 10000 | 0.01 to 0.1 | –
3 | C=CC(=O)N1CC[C@H](C(=O)N2CCCCC[C@H]2C(=O)N[C@H]2Cc3nc(cs3)-c3ccc4c(c3)c(c(-c3cccnc3[C@H](C)OC)n4CC)CC(C)(C)COC(=O)[C@@H]3CCCN(N3)C2=O)C1 (atropisomer, axis not shown) [Example A495] | > 10 | > 10 | 1000 to 10000 | 1000 to 10000 | 1000 to 10000 | 100 to 1000 | 1000 to 10000 | 0.01 to 0.1 | –
4 | C=CC(=O)N(C)CCN1CCN(C(=O)N(C)[C@H](C(=O)N[C@H]2Cc3cccc(c3)-c3ccc4c(c3)c(c(-c3cccnc3[C@H](C)OC)n4CC)CC(C)(C)COC(=O)[C@@H]3CCCN(N3)C2=O)C(C)C)CC1 (atropisomer, axis not shown) [Example A539] | 1 to 10 | 1 to 10 | 100 to 1000 | 100 to 1000 | 100 to 1000 | 100 to 1000 | 100 to 1000 | 0.1 to 1 | –
5 | C=CC(=O)N1CCOC2(CCN(C(=O)N(C)[C@H](C(=O)N[C@H]3Cc4cc(C(F)F)cc(n4)-c4ccc5c(c4)c(c(-c4cccnc4[C@H](C)OC)n5CC(F)(F)F)CC(C)(C)COC(=O)[C@@H]4CCCN(N4)C3=O)C(C)C)CC2)C1 (atropisomer, axis not shown) [Example A541] | 1 to 10 | 1 to 10 | 100 to 1000 | 1000 to 10000 | 100 to 1000 | 100 to 1000 | 100 to 1000 | 0.01 to 0.1 | –
6 | C=CC(=O)N1CCC[C@]12CCN(C(=O)N(C)[C@H](C(=O)N[C@H]1Cc3nc(cs3)-c3ccc4c(c3)c(c(-c3cccnc3[C@H](C)OC)n4CC)CC(C)(C)COC(=O)[C@@H]3CCCN(N3)C1=O)C(C)C)C2 (atropisomer, axis not shown) [Example A548] | 1 to 10 | 1 to 10 | 100 to 1000 | 100 to 1000 | 100 to 1000 | 100 to 1000 | 100 to 1000 | 0.1 to 1 | –
7 | C=CC(=O)N(C)CCN1CCN(C(=O)N(C)[C@H](C(=O)N[C@H]2Cc3cccc(c3)-c3ccc4c(c3)c(c(-c3cccnc3[C@H](C)OC)n4CC)CC(C)(C)COC(=O)[C@@H]3CCCN(N3)C2=O)C(C)C)C[C@H]1C (atropisomer, axis not shown) [Example A553] | 1 to 10 | 1 to 10 | 1000 to 10000 | 1000 to 10000 | 1000 to 10000 | 100 to 1000 | 100 to 1000 | 0.1 to 1 | –
8 | C=CC(=O)N1CCC2(CCN(C(=O)N(C)[C@H](C(=O)N[C@H]3Cc4cccc(c4)-c4ccc5c(c4)c(c(-c4cccnc4[C@H](C)OC)n5CC)CC(C)(C)COC(=O)[C@@H]4CCCN(N4)C3=O)C(C)C)CC2)C1 (atropisomer, axis not shown) [Example A554] | 1 to 10 | 1 to 10 | 100 to 1000 | 100 to 1000 | 100 to 1000 | 100 to 1000 | 100 to 1000 | 0.1 to 1 | –
9 | C=CC(=O)N1CC[C@]2(C1)OCN([C@H](C(=O)N[C@H]1Cc3cc(cc(C(F)F)c3)-c3ccc4c(c3)c(c(-c3cccnc3[C@H](C)OC)n4CC)CC(C)(C)COC(=O)[C@@H]3CCCN(N3)C1=O)C(C)C)C2=O (atropisomer, axis not shown) [Example A557] | 1 to 10 | 1 to 10 | 100 to 1000 | 1000 to 10000 | 1000 to 10000 | 100 to 1000 | 100 to 1000 | 0.1 to 1 | –
10 | CCn1c(-c2cccnc2[C@H](C)OC)c2c3cc(ccc31)-c1cccc(c1)C[C@H](NC(=O)[C@H](C(C)C)N1CC[C@]3(CCN(C(=O)C#C[C@H]4COCCN4C4COC4)C3)C1=O)C(=O)N1CCC[C@H](N1)C(=O)OCC(C)(C)C2 (atropisomer, axis not shown) [Example A568] | > 10 | > 10 | 1000 to 10000 | > 10000 | > 10000 | 100 to 1000 | > 10000 | 0.01 to 0.1 | –
11 | CCn1c(-c2cccnc2[C@H](C)OC)c2c3cc(ccc31)-c1cccc(c1)C[C@H](NC(=O)[C@H](C(C)C)N1CC[C@]3(CCN(C(=O)C#C[C@@H]4COCCN4C)C3)C1=O)C(=O)N1CCC[C@H](N1)C(=O)OCC(C)(C)C2 (atropisomer, axis not shown) [Example A569] | > 10 | > 10 | 1000 to 10000 | > 10000 | > 10000 | 10 to 100 | 10 to 100 | – | 0.01 to 0.1
12 | C=CC(=O)N(C)CCN1CCN(C(=O)N(C)[C@H](C(=O)N[C@H]2Cc3cccc(c3)-c3ccc4c(c3)c(c(-c3cccnc3[C@H](C)OC)n4CC)CC(C)(C)COC(=O)[C@@H]3CCCN(N3)C2=O)C(C)C)C[C@@H]1C (atropisomer, axis not shown) [Example A570] | 1 to 10 | 1 to 10 | 100 to 1000 | 100 to 1000 | 100 to 1000 | 100 to 1000 | 100 to 1000 | 0.1 to 1 | –
13 | C=CC(=O)N1CCO[C@H]2CN(C(=O)N(C)[C@H](C(=O)N[C@H]3Cc4nc(n(C)n4)-c4ccc5c(c4)c(c(-c4cccnc4[C@H](C)OC)n5CC(F)(F)F)CC(C)(C)COC(=O)[C@@H]4CCCN(N4)C3=O)C(C)C)C[C@H]21 (atropisomer, axis not shown) [Example A575] | 1 to 10 | 1 to 10 | 100 to 1000 | 1000 to 10000 | 100 to 1000 | 10 to 100 | 100 to 1000 | 0.01 to 0.1 | –
14 | C=CC(=O)N1CCO[C@]2(CCN(C(=O)N(C)[C@H](C(=O)N[C@H]3Cc4nc(cs4)-c4ccc5c(c4)c(c(-c4cccnc4[C@H](C)OC)n5CC(F)(F)F)CC(C)(C)COC(=O)[C@@H]4CCCN(N4)C3=O)C(C)C)C2)C1 (atropisomer, axis not shown) [Example A593] | 1 to 10 | 1 to 10 | 1000 to 10000 | 1000 to 10000 | 100 to 1000 | 100 to 1000 | 1000 to 10000 | 0.1 to 1 | –
15 | CCn1c(-c2cccnc2[C@H](C)OC)c2c3cc(ccc31)-c1csc(n1)C[C@H](NC(=O)[C@H](C(C)C)N(C)C(=O)N1CCC13CN(C(=O)/C=C/CN(C)C)C3)C(=O)N1CCC[C@H](N1)C(=O)OCC(C)(C)C2 (atropisomer, axis not shown) [Example A598] | 0.1 to 1 | 0.1 to 1 | 10 to 100 | 100 to 1000 | 10 to 100 | 10 to 100 | 10 to 100 | 0.01 to 0.1 | –
